Measured values reported in patent US8946266B2, “Substituted triazole and imidazole derivatives as gamma secretase modulators” (Janssen Pharmaceuticals, Inc., priority 2009, dated 2015).
Like-named read-outs stand apart in the source and are kept apart here.

How the values were obtained:
Aβtotal = assay: γ-secretase-modulating activity, Method 2: Aβtotal Alphalisa in supernatant of SKNBE2 cells carrying APP 695-wild type (Table 3b); assay type: cell-based; details: overnight, read-out: IC50 Aβtot
Procedure, shortened: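 Secreted Aβtotal was quantified by AlphaLISA pairing an N-terminal antibody (JRF/AβN/25) with biotinylated mid-region 4G8. Wild-type APP 695 SKNBE2 cells received serially varied compound overnight at 37 °C; IC50 came from a 4-parameter nonlinear regression of percent of control against log dose.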

Aβ42 = assay: γ-secretase-modulating activity, Method 2: Aβ42 Alphalisa in supernatant of SKNBE2 cells carrying APP 695-wild type (Table 3b); assay type: cell-based; details: overnight
Procedure, shortened: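 Aβ42 in the supernatant was quantified by AlphaLISA sandwich (JRF/cAβ42/26 with JRF/AβN/25). Cells were wild-type APP695 SKNBE2, exposed to compound overnight at 37° C., 5% CO2. Data were normalised to untreated maximum and fitted with a four-parameter curve to give IC50.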

SMILES	IC50 (Aβtotal) [nM]	IC50 (Aβ42) [nM]	IC50 (Aβtotal; Homo sapiens) [nM]	IC50 (Aβ42; Homo sapiens) [nM]
Cc1cn(-c2ccc(-c3nc(Nc4ccc(F)cc4C(F)(F)F)n(C)n3)cc2)cn1 [Compound 149]	> 10000	1700	–	–
COc1cc(F)c(F)c(Nc2nc(-c3ccc(-n4cnc(C)c4)c(OC)c3)nn2C)c1 [Compound 216]	> 10000	76	–	–
COc1cc(-c2nc(Nc3ccc(Cl)cc3)n(C)n2)ccc1-n1cnc(C)c1 [Compound 108]	7760	151	–	–
COc1cc(-c2nc(Nc3ccc(C#N)cc3C(F)(F)F)n(C)n2)ccc1-n1cnc(C)c1 [Compound 230]	> 10000	302	–	–
COc1cc(-c2nc(Oc3ccccc3Cl)n(C)n2)ccc1-n1cnc(C)n1 [Compound 272]	> 10000	7590	–	–
COc1cc(-c2nc3n(n2)CCCC32CCCCC2)ccc1-n1cnc(C)c1 [Compound 270]	> 10000	170	–	–
COc1ccc(C(F)(F)F)cc1Nc1nc(-c2ccc(-n3cnc(C)c3)c(OC)n2)nn1C [Compound 201]	> 15000	15	–	–
COc1cc(-c2nc(-c3cc(C(F)(F)F)ccc3C)nn2C)ccc1-n1cnc(C)c1 [Compound 296]	6030	1510	–	–
COCCn1nc(-c2ccc(-n3cnc(C)c3)c(OC)c2)nc1Nc1cc(C(F)(F)F)ccc1F [Compound 209]	9550	52	–	–
COc1cc(-c2nc(Nc3ccc(F)cc3C(F)(F)F)nn2C)ccc1-n1cnc(C)c1 [Compound 16]	> 10000	309	–	–
COc1cc(-c2nc3n(n2)CCCC3c2ccccc2C)ccc1-n1cnc(C)c1 (centres unmarked) [Compound 344]	> 10000	52	–	–
COc1cc(-c2nc(Oc3ccccc3Cl)n(C)n2)ccc1-n1cnc(C)c1 [Compound 248]	> 10000	389	–	–
COc1cc(-c2nc(Nc3ccnc(Cl)c3)n(C)n2)ccc1-n1cnc(C)c1 [Compound 234]	> 10000	955	–	–
COc1cc(-c2nc(N3CCC(c4ccccc4)CC3)n(C)n2)ccc1-n1cnc(C)c1 [Compound 77]	8320	145	–	–
COc1cc(-c2nc(Nc3cccc(C(F)(F)F)c3Cl)n(C)n2)ccc1-n1cnc(C)c1 [Compound 163]	> 10000	62	–	–
COc1cc(-c2nc(/C=C/c3ccc(F)cc3)n(C)n2)ccc1-n1cnc(C)c1 [Compound 45]	> 10000	85	–	–
COc1cc(-c2nc(N3CCC(c4cccc(C(F)(F)F)c4)C3)n(C(C)C)n2)ccc1-n1cnc(C)c1 (racemic) [Compound 74]	6460	251	–	–
COc1cc(-c2nc(Nc3cc(C(=O)N(C)C)ccc3F)n(C)n2)ccc1-n1cnc(C)c1 [Compound 308]	> 10000	1700	–	–
COc1cc(-c2nc(C3CCCCC3)n(C)n2)ccc1-n1cnc(C)c1 [Compound 34]	> 10000	240	–	–
COc1nc(-c2nc3n(n2)CCC[C@@H]3c2cc(C(F)(F)F)ccc2C)ccc1-n1cnc(C)c1 [Compound 342]	> 10000	162	–	–
COc1cc(-c2nc3n(n2)CCC(c2ccccc2C(F)(F)F)N3)ccc1-n1cnc(C)c1 (centres unmarked) [Compound 274]	–	–	8710	155
COc1cc(-c2nc(-c3cccc(C(F)(F)F)c3)n(C)n2)ccc1-n1cnc(C)c1 [Compound 7]	> 10000	117	–	–

SMILES	IC50 (Aβtotal) [nM]	IC50 (Aβ42) [nM]	IC50 (Aβtotal; Homo sapiens) [nM]	IC50 (Aβ42; Homo sapiens) [nM]
COc1cc(-c2nc(-c3cc(Cl)ccc3C)nn2C)ccc1-n1cnc(C)c1 [Compound 298]	> 10000	3090	–	–
COc1cc(-c2nc(N3CCCc4ccccc43)n(C)n2)ccc1-n1cnc(C)c1 [Compound 349]	> 10000	257	–	–
COc1cc(-c2nc(-c3ccc(F)cc3)n(C(C)C)n2)ccc1-n1cnc(C)c1 [Compound 5]	–	–	> 10000	170
COc1cc(-c2nc(Nc3ccccc3)n(C)n2)ccc1-n1cnc(C)c1 [Compound 335]	> 10000	200	–	–
COc1cc(-c2ncn(-c3cccc(C(F)(F)F)c3)n2)ccc1-n1cnc(C)c1 [Compound 65]	> 10000	2240	–	–
COc1cc(-c2nc(Nc3cc(C(C)=O)ccc3F)n(C)n2)ccc1-n1cnc(C)c1 [Compound 223]	–	–	> 10000	126
COc1cc(-c2nc(Nc3cccc(Cl)c3F)n(C)n2)ccc1-n1cnc(C)c1 [Compound 118]	> 10000	89	–	–
COc1cc(-c2nc(Nc3cccnc3)n(C)n2)ccc1-n1cnc(C)c1 [Compound 237]	> 10000	3160	–	–
COc1c(-n2cnc(C)c2)ccc(-c2nc(Nc3ccccc3C)n(C)n2)c1F [Compound 318]	> 10000	240	–	–
COc1cc(-c2nc(Nc3ccnc(C(F)(F)F)c3)n(C)n2)ccc1-n1cnc(C)c1 [Compound 235]	> 10000	132	–	–
COc1cc(-c2nc3n(n2)CCCC3c2ccc(C(F)(F)F)cc2)ccc1-n1cnc(C)c1 (centres unmarked) [Compound 268]	> 10000	141	–	–
COc1cc(-c2nc(C3(c4ccc(F)cc4)CC3)n(C)n2)ccc1-n1cnc(C)c1 [Compound 47]	3240	302	–	–
COCc1ccc(F)c(Nc2nc(-c3ccc(-n4cnc(C)c4)c(OC)c3)nn2C)c1 [Compound 331]	> 10000	56	–	–
COc1cc(-c2nc(/C=C/c3ccc(F)cc3)nn2C)ccc1-n1cnc(C)c1 [Compound 59]	> 10000	2950	–	–
COc1cc(F)c(C(F)(F)F)cc1Nc1nc(-c2ccc(-n3cnc(C)c3)c(OC)c2)nn1C [Compound 220]	> 10000	63	–	–
COc1cc(-c2nc3n(n2)CCOC3c2ccc(F)cc2C)ccc1-n1cnc(C)c1 (centres unmarked) [Compound 305]	> 10000	646	–	–
COc1cc(-c2nc3n(n2)CCCC3c2ccccc2F)ccc1-n1cnc(C)c1 (centres unmarked) [Compound 257]	> 10000	148	–	–
COc1cc(-c2nc(Nc3cccc(Cl)c3)n(C)n2)ccc1-n1cnc(C)c1 [Compound 103]	6310	36	–	–
COc1cc(-c2nc(Nc3cccc(NC(C)=O)c3)n(C)n2)ccc1-n1cnc(C)c1 [Compound 222]	> 10000	1150	–	–
COc1cc(-c2nc3n(n2)CCCOC3c2ccccc2C(F)(F)F)ccc1-n1cnc(C)c1 (centres unmarked) [Compound 285]	> 10000	76	–	–
COCCn1nc(-c2ccc(-n3cnc(C)c3)c(OC)c2)nc1-c1ccccc1Cl [Compound 87]	> 10000	759	–	–
COc1cc(-c2ncn(-c3ccccc3C(F)(F)F)n2)ccc1-n1cnc(C)c1 [Compound 63]	> 10000	1350	–	–

SMILES	IC50 (Aβtotal) [nM]	IC50 (Aβ42) [nM]	IC50 (Aβtotal; Homo sapiens) [nM]	IC50 (Aβ42; Homo sapiens) [nM]
COc1cc(-c2nc(C(C)(O)c3cccc(C(F)(F)F)c3)n(C(C)C)n2)ccc1-n1cnc(C)c1 (centres unmarked) [Compound 89]	–	–	7940	501
COc1nc(-c2nc(Nc3ccccc3F)n(C)n2)ccc1-n1cnc(C)c1 [Compound 107]	> 10000	148	–	–
COc1cc(-c2nc(Nc3c(C)cccc3F)n(C)n2)ccc1-n1cnc(C)c1 [Compound 323]	> 10000	51	–	–
COc1ccc(F)cc1Nc1nc(-c2ccc(-n3cnc(C)c3)c(OC)c2)nn1C [Compound 190]	> 10000	214	–	–
COc1cc(-c2nc(N3CCCN(C(C)=O)CC3)n(C(C)C)n2)ccc1-n1cnc(C)c1 [Compound 301]	> 10000	> 10000	–	–
COc1cc(-c2nc(Nc3cccc(Cl)c3OC)n(C)n2)ccc1-n1cnc(C)c1 [Compound 194]	> 10000	65	–	–
COc1cc(-c2nc(Nc3cc(F)ccc3C(F)(F)F)n(C)n2)ccc1-n1cnc(C)c1 [Compound 168]	> 10000	71	–	–
CCOc1cc(C)c(Nc2nc(-c3ccc(-n4cnc(C)c4)c(OC)c3)nn2C)cc1C(C)C [Compound 328]	145	7	–	–
COc1cc(-c2nc(N3CCCC(C(F)(F)F)C3)n(C(C)C)n2)ccc1-n1cnc(C)c1 (racemic) [Compound 75]	6460	676	–	–
COc1cc(-c2nc(N(C(C)=O)c3cc(F)c(F)cc3I)n(C)n2)ccc1-n1cnc(C)c1 [Compound 232]	–	–	> 10000	1410
COc1nc(-c2nc3n(n2)CCCC3c2ccc(F)cc2)ccc1-n1cnc(C)c1 (centres unmarked) [Compound 253]	> 10000	170	–	–
COc1cc(-c2nc3n(n2)CCOC3c2ccc(F)cc2C)ccc1-n1cnc(C)c1 (centres unmarked) [Compound 280]	> 10000	191	–	–
COc1cc(-c2nc(-c3ccccc3Cl)n(CC3CC3)n2)ccc1-n1cnc(C)c1 [Compound 85]	> 10000	309	–	–
COc1cc(-c2nc(Nc3cc(F)c(F)cc3I)n(C)n2)ccc1-n1cnc(C)c1 [Compound 120]	> 10000	123	–	–
COc1cc(-c2nc(NC3CCCC(C(F)(F)F)C3)n(C)n2)ccc1-n1cnc(C)c1 (centres unmarked) [Compound 96]	> 10000	339	–	–
COc1cc(-c2nc(Nc3cc(C(F)(F)F)c(F)cc3F)n(C)n2)ccc1-n1cnc(C)c1 [Compound 172]	> 10000	62	–	–
COc1cc(-c2nc(Nc3cc(Cl)ccc3C)n(C)n2)ccc1-n1cnc(C)c1 [Compound 174]	7410	20	–	–
COc1cc(-c2nc(Nc3cc(C(F)(F)F)ccc3F)n(C)n2)ccc1-n1ccnc1 [Compound 359]	–	–	> 10000	95
COc1cc(-c2nc(Nc3cc(F)c(F)c(F)c3)n(C)n2)ccc1-n1cnc(C)c1 [Compound 48]	6920	245	–	–
COc1cc(-c2nc(Nc3ccc(F)cc3Cl)n(C)n2)ccc1-n1cnc(C)c1 [Compound 109]	> 10000	117	–	–
